This is an account of results in patent US20210186982A1, “METHODS AND COMPOSITIONS FOR TREATING MELANOMA” (UNIVERSITE NICE SOPHIA ANTIPOLIS, priority 2017, published 2021).

Test [1] relates to WM793. Description: MTS conversion assay, melanoma cell proliferation. The class given is cell-based. Particulars: Homo sapiens, VGP, BRAFV600E/PTEN*, resistance none, 48 h MTS, read-out: b-AP15 IC50. As to the method: (§1) Cell proliferation was measured by a MTS conversion assay using the CellTiter 96® Aqueous Non-Radioactive Cell Proliferation kit (Promega, Madison Wis.) according to the manufacturer instructions. Cells were seeded in 96-well plates (5×10^4 cells/well) and treated with different reagents for the indicated times and incubated at 37° C. with MTS reagent. The optical density of each sample at 490 nm was determined with a Multiskan FC plate reader (Thermo Fisher Scientific, Waltham, Mass. USA).
Background: Tetrazolium dyes change colour on reduction, which living cells bring about.

The subject of test [2] is SBCL2. Description: MTS conversion assay, melanoma cell proliferation. In kind it is cell-based. Conditions: Homo sapiens, RGP, NRASQ61K, resistance none, 48 h MTS, read-out: b-AP15 IC50. As to the method: as §1
Test [3] has as its system A375DR. Description: MTS conversion assay, melanoma cell proliferation. In kind it is cell-based. Particulars: Homo sapiens, MET, BRAFV600E/CDKN2A*/?, resistance vemurafenib/ERKi, 48 h MTS, read-out: b-AP15 IC50. As to the method: as §1
Test [4] has as its system WM266-4. Description: MTS conversion assay, melanoma cell proliferation. In kind it is cell-based. Conditions: Homo sapiens, WM 266-4, MET, BRAFV600D/PTEN*, resistance none, 48 h MTS, read-out: b-AP15 IC50. As to the method:
as §1

The test system of test [5] is MeWo. In words: MTS conversion assay, melanoma cell proliferation. The class given is cell-based. Conditions: Homo sapiens, MET, p53*/CDKN2A*, resistance none, 48 h MTS, read-out: b-AP15 IC50. As to the method: as §1
The subject of test [6] is WM164. In words: MTS conversion assay, melanoma cell proliferation. Conditions: Homo sapiens, MET, BRAFV600E/CDKN2A*, resistance none, 48 h MTS, read-out: b-AP15 IC50. The class given is cell-based. As to the method:
as §1

Test [7] concerns Mel1617. Description: MTS conversion assay, melanoma cell proliferation. The class given is cell-based. Particulars: Homo sapiens, MET, BRAF*/p53*, resistance none, 48 h MTS, read-out: b-AP15 IC50. As to the method: as §1
Test [8] deals with m229. Description: MTS conversion assay, melanoma cell proliferation. In kind it is cell-based. Particulars: Homo sapiens, MET, BRAFV600E/PTEN*, resistance none, 48 h MTS, read-out: b-AP15 IC50. As to the method:
as §1

In test [9] the test system is 451Iu. Description: MTS conversion assay, melanoma cell proliferation. In kind it is cell-based. Particulars: Homo sapiens, MET, BRAFV600E/p53*, resistance none, 48 h MTS, read-out: b-AP15 IC50. As to the method:
as §1

For test [10], the system named is m249. In words: MTS conversion assay, melanoma cell proliferation. The class given is cell-based. Particulars: Homo sapiens, MET, BRAFV600E/PTEN*, resistance none, 48 h MTS, read-out: b-AP15 IC50. As to the method:
as §1

In test [11] the test system is m238R. Description: MTS conversion assay, melanoma cell proliferation. In kind it is cell-based. Conditions: Homo sapiens, MET, BRAFV600E/PTEN*/RTK*, resistance vemurafenib, 48 h MTS, read-out: b-AP15 IC50. As to the method:
as §1

Test [12] relates to m249R. In words: MTS conversion assay, melanoma cell proliferation. The class given is cell-based. Conditions: Homo sapiens, MET, BRAFV600E/PTEN*/NRAS*, resistance vemurafenib, 48 h MTS, read-out: b-AP15 IC50. As to the method:
as §1

The test system of test [13] is Mel1617R. Description: MTS conversion assay, melanoma cell proliferation. In kind it is cell-based. Conditions: Homo sapiens, MET, BRAF*/p53*/?, resistance dabrafenib, 48 h MTS, read-out: b-AP15 IC50. As to the method:
as §1

Test [14] concerns HMV2. Description: MTS conversion assay, melanoma cell proliferation. The class given is cell-based. Particulars: Homo sapiens, HMV-2, MET, NRAS*, resistance none, 48 h MTS, read-out: b-AP15 IC50. As to the method:
as §1

The test system of test [15] is m238. Description: MTS conversion assay, melanoma cell proliferation. The class given is cell-based. Particulars: Homo sapiens, MET, BRAFV600E/PTEN*, resistance none, 48 h MTS, read-out: b-AP15 IC50. As to the method: as §1
Test [16] concerns 12051u cells. Description: Cell cycle / sub-G1 analysis by flow cytometry (PI). Conditions: 24 h. The class given is cell-based, human. As to the method: (§2) Cell cycle profiles and sub-G1 analysis were performed by flow cytometry analysis of propidium iodide (PI)-stained cells. Briefly, following permeabilization in icecold ethanol 70%, cells were stained with PI 40 μg/ml in PBS supplemented with RNAse A 100 μg/ml before analysis using a BD FACSCanto cytometer.

Test [17] has as its system A375 cells. The test is described as above. The class given is cell-based, human. Conditions: 24 h. As to the method:
as §2

The test system of test [18] is K48-linked poly-ubiquitinated proteins. Description: Immunoblot analysis of poly-ubiquitinated proteins in A375 cells. The class given is cell-based, human. As to the method: Melanoma cells were harvested as described before 6. Cells were lysed at 4° C. in RIPA buffer (Millipore) supplemented with Pierce™ Protease and Phosphatase Inhibitor Mini Tablets, and briefly sonicated. Cell lysates were cleared at 16,000 xg for 15 min at 4° C. Whole cell lysates were subjected to SDS-PAGE and immunoblot analysis as previously described 6.
On the technique in general: A western blot detects proteins with antibodies after separation by electrophoresis.

Test [19] has as its system Me1501 and A375 cells. Description: Colony formation. In kind it is cell-based, human. Particulars: compared to untreated cells. As to the method:
Alternatively, cell growth was assessed by crystal violet staining on cells seeded in 24-well plates for the indicated time. After treatment, cells were fixed in PFA 3% during 20 min, washed with PBS 3 times and stained with crystal violet 0.4% in ethanol 20% for 30 min.

The test system of test [20] is A375 cells. Description: ROS production (CM-H2DCFDA, flow cytometry). The class given is cell-based, human. Conditions: 2 μM b-AP15 for 30 min. As to the method:
ROS levels were measured using the redox-sensitive dye CM-H2DCFDA (Thermo Fischer Scientific). After treatment, cells were stained with 10 μM CM-H2DCFDA in PBS for 30 min at 37° C. Cells were washed with PBS and resuspended in PBS 5 mM EDTA/1% BSA. ROS production was analysed using a MACSQuant® Analyzer 10 cytometer (Miltenyi Biotech).

The test system of test [21] is melanoma cells. In words: Cytotoxic effect, rounding of cells. In kind it is cell-based, human.

One may read the IC50 as the concentration that inhibits the measured activity by half.

In the case of `Cc1cc(C(=O)CN2CCCC2)c(C)n1-c1ccc(F)cc1` [b-AP15], the IC50 in test [1] is 0.3 µM; in test [2], 0.4 µM; in test [3] it was 1.3 µM; in test [4], 0.5 µM; in [5], 0.7 µM; in test [6], 0.9 µM. Further, the IC50 in [7] is 1.4 µM; in test [8], 1.2 µM; in test [9] it was 0.9 µM; in test [10], 2 µM; in test [11], 0.2 µM; in [12] it was 3 µM. Besides, the IC50 was 0.9 µM in test [13], 1.8 µM in test [14] and 0.4 µM in test [15]. Besides, the figures for the “sub-G1 cell population with reduced DNA content” value in test [16] and in [17] were 19% and 11%, respectively. The K48-linked poly-ubiquitinated proteins result in [18] was “induced a rapid accumulation”. For the same molecule, in test [19], the “ability to form colonies, compound treatment” value is on record as “no longer capable of forming colonies”. The ROS production result in test [20] is “triggered a rapid burst of ROS”. In addition, the “time to rounding of melanoma cells” value in [21] was at most 12 h.
